Results as given in ChEMBL document CHEMBL3045223, “Synthesis, nematicidal and antimicrobial properties of Bis-[4-methoxy-3-[3-(4-fluorophenyl)-6-(4-methylphenyl)-2(aryl)-tetrahydro-2H-pyrazolo[3,4-d]thiazol-5-yl]phenyl]methanes” (2009).
Values after ≈ are worked out from the molar mass of the structure shown.

What follows are compounds tested on Klebsiella aerogenes (assay: Antibacterial activity against Enterobacter aerogenes MTCC 39 assessed as inhibition zones at 300 ug/disk at 37 degC for 24 hr). Settings: MTCC 39, 24 h, read-out: IZ.
Type: functional

SMILES	zone of inhibition at 300 µg/disc
COc1ccc(Cc2ccc(OC)c(C3SC4C(=NN(C)C4c4ccc(F)cc4)N3c3ccc([N+](=O)[O-])cc3)c2)cc1C1SC2C(=NN(C)C2c2ccc(F)cc2)N1c1ccc([N+](=O)[O-])cc1 (configuration not stated)	19 mm

The compounds below were run on Trichophyton mentagrophytes (assay: Antifungal activity against Trichophyton mentagrophytes IFO 40996 assessed as growth inhibition at 37 degC for 48 hr). Settings: IFO 40996, 48 h.
Type: functional

SMILES	MBC	MIC
COc1ccc(Cc2ccc(OC)c(C3SC4C(=NN(C)C4c4ccc(F)cc4)N3c3ccc([N+](=O)[O-])cc3)c2)cc1C1SC2C(=NN(C)C2c2ccc(F)cc2)N1c1ccc([N+](=O)[O-])cc1 (configuration not stated)	25 µg/mL (≈ 26.6 µM)	12.5 µg/mL (≈ 13.3 µM)

What follows are compounds tested on Pseudomonas aeruginosa (assay: Antibacterial activity against Pseudomonas aeruginosa MTCC 741 assessed as inhibition zones at 300 ug/disk at 37 degC for 24 hr). Settings: MTCC 741, 24 h, read-out: IZ.
Type: functional

SMILES	zone of inhibition at 300 µg/disc
COc1ccc(Cc2ccc(OC)c(C3SC4C(=NN(C)C4c4ccc(F)cc4)N3c3ccc([N+](=O)[O-])cc3)c2)cc1C1SC2C(=NN(C)C2c2ccc(F)cc2)N1c1ccc([N+](=O)[O-])cc1 (configuration not stated)	12 mm

Each compound was assayed on Trichophyton rubrum (assay: Antifungal activity against Trichophyton rubrum IFO 9185 assessed as growth inhibition at 300 ug/disk at 37 degC for 48 hr). Settings: IFO 9185, 48 h, read-out: IZ.
Type: functional

SMILES	zone of inhibition at 300 µg/disc
COc1ccc(Cc2ccc(OC)c(C3SC4C(=NN(C)C4c4ccc(F)cc4)N3c3ccc([N+](=O)[O-])cc3)c2)cc1C1SC2C(=NN(C)C2c2ccc(F)cc2)N1c1ccc([N+](=O)[O-])cc1 (configuration not stated)	15 mm

What follows are compounds tested on Lysinibacillus sphaericus (assay: Antibacterial activity against Lysinibacillus sphaericus MTCC 11 assessed as growth arrest at 37 degC for 24 hr). Settings: MTCC 11, 24 h.
Type: functional

SMILES	MBC	MIC
COc1ccc(Cc2ccc(OC)c(C3SC4C(=NN(C)C4c4ccc(F)cc4)N3c3ccc([N+](=O)[O-])cc3)c2)cc1C1SC2C(=NN(C)C2c2ccc(F)cc2)N1c1ccc([N+](=O)[O-])cc1 (configuration not stated)	25 µg/mL (≈ 26.6 µM)	12.5 µg/mL (≈ 13.3 µM)

The compounds below were run on Chromobacterium violaceum (assay: Antibacterial activity against Chromobacterium violaceum MTCC 2656 assessed as inhibition zones at 300 ug/disk at 37 degC for 24 hr). Settings: MTCC 2656, 24 h, read-out: IZ.
Type: functional

SMILES	zone of inhibition at 300 µg/disc
COc1ccc(Cc2ccc(OC)c(C3SC4C(=NN(C)C4c4ccc(F)cc4)N3c3ccc([N+](=O)[O-])cc3)c2)cc1C1SC2C(=NN(C)C2c2ccc(F)cc2)N1c1ccc([N+](=O)[O-])cc1 (configuration not stated)	18 mm

Each compound was assayed on Pseudomonas aeruginosa (assay: Antibacterial activity against Pseudomonas aeruginosa MTCC 741 assessed as growth arrest at 37 degC for 24 hr). Settings: MTCC 741, 24 h.
Type: functional

SMILES	MBC	MIC
COc1ccc(Cc2ccc(OC)c(C3SC4C(=NN(C)C4c4ccc(F)cc4)N3c3ccc([N+](=O)[O-])cc3)c2)cc1C1SC2C(=NN(C)C2c2ccc(F)cc2)N1c1ccc([N+](=O)[O-])cc1 (configuration not stated)	12.5 µg/mL (≈ 13.3 µM)	12.5 µg/mL (≈ 13.3 µM)

The compounds below were run on Candida albicans (assay: Antifungal activity against Candida albicans ATCC 10231 assessed as growth inhibition at 37 degC for 48 hr). Settings: ATCC 10231, 48 h.
Type: functional

SMILES	MBC	MIC
COc1ccc(Cc2ccc(OC)c(C3SC4C(=NN(C)C4c4ccc(F)cc4)N3c3ccc([N+](=O)[O-])cc3)c2)cc1C1SC2C(=NN(C)C2c2ccc(F)cc2)N1c1ccc([N+](=O)[O-])cc1 (configuration not stated)	25 µg/mL (≈ 26.6 µM)	12.5 µg/mL (≈ 13.3 µM)

What follows are compounds tested on Bacillus subtilis (assay: Antibacterial activity against Bacillus subtilis MTCC 441 assessed as inhibition zones at 300 ug/disk at 37 degC for 24 hr). Settings: MTCC 441, 24 h, read-out: IZ.
Type: functional

SMILES	zone of inhibition at 300 µg/disc
COc1ccc(Cc2ccc(OC)c(C3SC4C(=NN(C)C4c4ccc(F)cc4)N3c3ccc([N+](=O)[O-])cc3)c2)cc1C1SC2C(=NN(C)C2c2ccc(F)cc2)N1c1ccc([N+](=O)[O-])cc1 (configuration not stated)	16 mm

These compounds were tested on Candida albicans (assay: Antifungal activity against Candida albicans ATCC 10231 assessed as growth inhibition at 300 ug/disk at 37 degC for 48 hr). Settings: ATCC 10231, 48 h, read-out: IZ.
Type: functional

SMILES	zone of inhibition at 300 µg/disc
COc1ccc(Cc2ccc(OC)c(C3SC4C(=NN(C)C4c4ccc(F)cc4)N3c3ccc([N+](=O)[O-])cc3)c2)cc1C1SC2C(=NN(C)C2c2ccc(F)cc2)N1c1ccc([N+](=O)[O-])cc1 (configuration not stated)	21 mm

The compounds below were run on Trichophyton rubrum (assay: Antifungal activity against Trichophyton rubrum IFO 9185 assessed as growth inhibition at 37 degC for 48 hr). Settings: IFO 9185, 48 h.
Type: functional

SMILES	MBC	MIC
COc1ccc(Cc2ccc(OC)c(C3SC4C(=NN(C)C4c4ccc(F)cc4)N3c3ccc([N+](=O)[O-])cc3)c2)cc1C1SC2C(=NN(C)C2c2ccc(F)cc2)N1c1ccc([N+](=O)[O-])cc1 (configuration not stated)	25 µg/mL (≈ 26.6 µM)	12.5 µg/mL (≈ 13.3 µM)

The compounds below were run on Staphylococcus aureus (assay: Antibacterial activity against Staphylococcus aureus MTCC 96 assessed as growth arrest at 37 degC for 24 hr). Settings: MTCC 96, 24 h.
Type: functional

SMILES	MBC	MIC
COc1ccc(Cc2ccc(OC)c(C3SC4C(=NN(C)C4c4ccc(F)cc4)N3c3ccc([N+](=O)[O-])cc3)c2)cc1C1SC2C(=NN(C)C2c2ccc(F)cc2)N1c1ccc([N+](=O)[O-])cc1 (configuration not stated)	25 µg/mL (≈ 26.6 µM)	12.5 µg/mL (≈ 13.3 µM)

What follows are compounds tested on Aspergillus fumigatus (assay: Antifungal activity against Aspergillus fumigatus HIC 6094 assessed as growth inhibition at 37 degC for 48 hr). Settings: HIC 6094, 48 h.
Type: functional

SMILES	MBC	MIC
COc1ccc(Cc2ccc(OC)c(C3SC4C(=NN(C)C4c4ccc(F)cc4)N3c3ccc([N+](=O)[O-])cc3)c2)cc1C1SC2C(=NN(C)C2c2ccc(F)cc2)N1c1ccc([N+](=O)[O-])cc1 (configuration not stated)	25 µg/mL (≈ 26.6 µM)	12.5 µg/mL (≈ 13.3 µM)

The compounds below were run on Lysinibacillus sphaericus (assay: Antibacterial activity against Lysinibacillus sphaericus MTCC 11 assessed as inhibition zones at 300 ug/disk at 37 degC for 24 hr). Settings: MTCC 11, 24 h, read-out: IZ.
Type: functional

SMILES	zone of inhibition at 300 µg/disc
COc1ccc(Cc2ccc(OC)c(C3SC4C(=NN(C)C4c4ccc(F)cc4)N3c3ccc([N+](=O)[O-])cc3)c2)cc1C1SC2C(=NN(C)C2c2ccc(F)cc2)N1c1ccc([N+](=O)[O-])cc1 (configuration not stated)	20 mm

These compounds were tested on Klebsiella aerogenes (assay: Antibacterial activity against Enterobacter aerogenes MTCC 39 assessed as growth arrest at 37 degC for 24 hr). Settings: MTCC 39, 24 h.
Type: functional

SMILES	MBC	MIC
COc1ccc(Cc2ccc(OC)c(C3SC4C(=NN(C)C4c4ccc(F)cc4)N3c3ccc([N+](=O)[O-])cc3)c2)cc1C1SC2C(=NN(C)C2c2ccc(F)cc2)N1c1ccc([N+](=O)[O-])cc1 (configuration not stated)	25 µg/mL (≈ 26.6 µM)	12.5 µg/mL (≈ 13.3 µM)

The compounds below were run on Trichophyton mentagrophytes (assay: Antifungal activity against Trichophyton mentagrophytes IFO 40996 assessed as growth inhibition at 300 ug/disc at 37 degC for 48 hr). Settings: IFO 40996, 48 h, read-out: IZ.
Type: functional

SMILES	zone of inhibition at 300 µg/disc
COc1ccc(Cc2ccc(OC)c(C3SC4C(=NN(C)C4c4ccc(F)cc4)N3c3ccc([N+](=O)[O-])cc3)c2)cc1C1SC2C(=NN(C)C2c2ccc(F)cc2)N1c1ccc([N+](=O)[O-])cc1 (configuration not stated)	14 mm

What follows are compounds tested on Aspergillus fumigatus (assay: Antifungal activity against Aspergillus fumigatus HIC 6094 assessed as growth inhibition at 300 ug/disc at 37 degC for 48 hr). Settings: HIC 6094, 48 h, read-out: IZ.
Type: functional

SMILES	zone of inhibition at 300 µg/disc
COc1ccc(Cc2ccc(OC)c(C3SC4C(=NN(C)C4c4ccc(F)cc4)N3c3ccc([N+](=O)[O-])cc3)c2)cc1C1SC2C(=NN(C)C2c2ccc(F)cc2)N1c1ccc([N+](=O)[O-])cc1 (configuration not stated)	14 mm

What follows are compounds tested on Staphylococcus aureus (assay: Antibacterial activity against Staphylococcus aureus MTCC 96 assessed as inhibition zones at 300 ug/disc at 37 degC for 24 hr). Settings: MTCC 96, 24 h, read-out: IZ.
Type: functional

SMILES	zone of inhibition at 300 µg/disc
COc1ccc(Cc2ccc(OC)c(C3SC4C(=NN(C)C4c4ccc(F)cc4)N3c3ccc([N+](=O)[O-])cc3)c2)cc1C1SC2C(=NN(C)C2c2ccc(F)cc2)N1c1ccc([N+](=O)[O-])cc1 (configuration not stated)	21 mm

Each compound was assayed on Bacillus subtilis (assay: Antibacterial activity against Bacillus subtilis MTCC 441 assessed as growth arrest at 37 degC for 24 hr). Settings: MTCC 441, 24 h.
Type: functional

SMILES	MBC	MIC
COc1ccc(Cc2ccc(OC)c(C3SC4C(=NN(C)C4c4ccc(F)cc4)N3c3ccc([N+](=O)[O-])cc3)c2)cc1C1SC2C(=NN(C)C2c2ccc(F)cc2)N1c1ccc([N+](=O)[O-])cc1 (configuration not stated)	6.25 µg/mL (≈ 6.64 µM)	6.25 µg/mL (≈ 6.64 µM)

The compounds below were run on Caenorhabditis elegans (assay: Nematicidal activity against Caenorhabditis elegans assessed as immobility). Settings: read-out: LD50 (the source's name).
Type: functional

SMILES	LC50
COc1ccc(Cc2ccc(OC)c(C3SC4C(=NN(C)C4c4ccc(F)cc4)N3c3ccc([N+](=O)[O-])cc3)c2)cc1C1SC2C(=NN(C)C2c2ccc(F)cc2)N1c1ccc([N+](=O)[O-])cc1 (configuration not stated)	200 µg/mL (≈ 213 µM)

The compounds below were run on Chromobacterium violaceum (assay: Antibacterial activity against Chromobacterium violaceum MTCC 2656 assessed as growth arrest at 37 degC for 24 hr). Settings: MTCC 2656, 24 h.
Type: functional

SMILES	MBC	MIC
COc1ccc(Cc2ccc(OC)c(C3SC4C(=NN(C)C4c4ccc(F)cc4)N3c3ccc([N+](=O)[O-])cc3)c2)cc1C1SC2C(=NN(C)C2c2ccc(F)cc2)N1c1ccc([N+](=O)[O-])cc1 (configuration not stated)	12.5 µg/mL (≈ 13.3 µM)	12.5 µg/mL (≈ 13.3 µM)

The compounds below were run on Ditylenchus myceliophagus (assay: Nematicidal activity against Ditylenchus myceliophagus assessed as immobility). Settings: read-out: LD50 (the source's name).
Type: functional

SMILES	LC50
COc1ccc(Cc2ccc(OC)c(C3SC4C(=NN(C)C4c4ccc(F)cc4)N3c3ccc([N+](=O)[O-])cc3)c2)cc1C1SC2C(=NN(C)C2c2ccc(F)cc2)N1c1ccc([N+](=O)[O-])cc1 (configuration not stated)	180 µg/mL (≈ 191 µM)
